Data from patent publication US8916553B2 (Bristol-Myers Squibb Company, priority 2010, dated 2014).

Experiments:
Human CYP17 = Human CYP17 (Homo sapiens (Human), UniProt P05093); assay: CYP17 Total SPA Assay; format: biochemical; settings: microsomes from HEK2 cells stably transfected with CYP17; 3H-Pregnenolone 1 uM; NADPH 2 mM; 45 minutes at room temperature
Method: CYP17 Total SPA Assay The assays were performed in U-bottom 384-well optiplates. […] The reaction was initiated by the combination of the microsomes and substrates in wells containing compound. The reaction was incubated at room temperature for 45 minutes and terminated by adding 7.5 μl of 0.2N HCl to each well. […] The plate was sealed and incubated overnight with shaking at 4° C. The beads were allowed to settle in the plate for 1 hour and the plate read on a TOPCOUNT® (Perkin-Elmer) plate reader. […] The final concentration of reagents in the assays are NADPH, 2 mM; 3H-Pregnenolone, 1 uM; microsomes, 1.25 ug/ml; […] Dose response curves were generated to determine the concentration required inhibiting 50% of enzyme activity (IC50). Compounds were dissolved at 10 mM in dimethylsulfoxide (DMSO) and evaluated at eleven concentrations, each in duplicate. IC50 values were derived by non-linear regression analysis. Table 22 below lists the IC50 values for the following Examples of this invention measured in the Total CYP17 SPA Assay hereinabove.

testosterone levels = assay: 1-Day Cyno PK/PD Study; format: in vivo; settings: cynomolgus monkeys; single oral dose of 5 mg/Kg in 80% PEG-400/water; blood samples over a 24 hour period (FIG. 1)
Method: 1-Day Cyno PK/PD Study Protocol
Animals: All procedures involving animals and their care were conducted in conformity with the guidelines that are in compliance with the Bristol-Myers Squibb Institutional Animal Care and Use Committee. Fully mature male cynomolgus monkeys (>4 yrs of age; 5-6 kg) were from an in-house colony. All the monkeys used had chronically implanted femoral vein access ports. For oral studies, all animals were fasted overnight prior to dosing and were fed 4 hr after dosing. All animals had free access to water and were conscious throughout the study.
Drug: For all oral pharmacokinetic studies in cynomolgus monkeys, the tested compound was formulated in polyethylene glycol (PEG 400): water (80:20, v:v) at concentrations of 1-5 mg/mL. […]
Sampling: Blood samples were collected from the femoral port, at 15, 30, and 45 min, and 1, 2, 4, 6, 8, 12, 24, 30, and 48 hr after oral administration. […] The plasma fraction was immediately separated by centrifugation (14,000 rpm, 10 min, 4° C.), frozen on dry ice, and stored at −20° C. until the samples were analyzed.
Analysis of Tested Compound: Plasma samples were thawed and treated with two volumes of acetonitrile containing internal standard. After centrifugation to remove precipitated proteins, an aliquot of supernatant was analyzed by LC/MS/MS. […]

Chain of Human CYP17 (P05093 whole entry): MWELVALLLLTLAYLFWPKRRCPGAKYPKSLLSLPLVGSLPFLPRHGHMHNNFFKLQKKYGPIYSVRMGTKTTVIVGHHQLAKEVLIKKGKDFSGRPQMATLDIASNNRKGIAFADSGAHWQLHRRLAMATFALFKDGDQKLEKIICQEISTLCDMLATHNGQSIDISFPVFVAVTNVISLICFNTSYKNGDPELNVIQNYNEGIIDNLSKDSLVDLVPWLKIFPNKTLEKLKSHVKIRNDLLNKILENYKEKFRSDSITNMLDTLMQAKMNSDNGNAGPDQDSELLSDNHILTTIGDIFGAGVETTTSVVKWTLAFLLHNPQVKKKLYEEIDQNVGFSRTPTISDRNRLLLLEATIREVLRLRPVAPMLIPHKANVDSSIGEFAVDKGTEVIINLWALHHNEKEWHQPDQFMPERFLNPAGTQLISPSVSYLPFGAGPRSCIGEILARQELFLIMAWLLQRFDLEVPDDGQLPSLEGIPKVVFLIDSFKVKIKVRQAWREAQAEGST

## COc1cc(NS(C)(=O)=O)ccc1-c1cnccc1C [Example 217, N-(3-methoxy-4-(4-methyl-3-pyridinyl)phenyl)methanesulfonamide]
Human CYP17
  IC50: 2.5 nM
Testosterone levels
  testosterone levels: reduced
